Source: PubChem BioAssay AID2060912 (Molecular Pharmacology Branch, DTP, NCI, 2025)
pIC50: −log10 of the molar value.

Test system: HUVEC/MSC spheroids viability
Assay: Human HUVEC/MSC cell line growth inhibition [KRAS2];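 as to viability, T/C: percent of DMSO vehicle control luminescence so 100% = untreated viability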
Conditions: for pIC50: curve of first compound; for viability, T/C: stronger effect = lower value
Method in brief: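 Endothelial cells (HUVEC) plus mesenchymal stem cells, cultured at 37 °C/5% CO2 and assembled into spheroids without cancer cells, served as a stromal control. Drug pairs and single agents spanned half-log ranges anchored to clinical Cmax.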

[1] = second compound 0.0316 µM, first compound 0.0316 µM
[2] = second compound 0.0316 µM, first compound 0.1 µM
[3] = second compound 0.1 µM, first compound 0.0316 µM
[4] = second compound 0.1 µM, first compound 0.1 µM
[5] = second compound 0.316 µM, first compound 0.0316 µM
[6] = second compound 0.316 µM, first compound 0.1 µM
[7] = second compound 1 µM, first compound 0.0316 µM
[8] = second compound 1 µM, first compound 0.1 µM
[9] = second compound 3.16 µM, first compound 0.0316 µM
[10] = second compound 3.16 µM, first compound 0.1 µM
[11] = second compound 10 µM, first compound 0.0316 µM
[12] = second compound 10 µM, first compound 0.1 µM

CC(C)NCC(C(=O)N1CCN(c2ncnc3c2C(C)CC3O)CC1)c1ccc(Cl)cc1 (centres undefined) + COc1cc2nc(C)nc(NC(C)c3cc(N)cc(C(F)(F)F)c3)c2cc1OC1CCOC1
pIC50 (second compound 0.0316 µM): 5.71 | pIC50 (second compound 0.1 µM): 5.80 | pIC50 (second compound 0.316 µM): 5.68 | pIC50 (second compound 1 µM): 5.65 | pIC50 (second compound 3.16 µM): 5.52 | pIC50 (second compound 10 µM): 6.00 | viability, T/C [1]: 92.4% | viability, T/C [2]: 95.3% | viability, T/C (second compound 0.0316 µM, first compound 0.316 µM): 77.1% | viability, T/C (second compound 0.0316 µM, first compound 1 µM): 52% | viability, T/C (second compound 0.0316 µM, first compound 3.16 µM): 48% | viability, T/C (second compound 0.0316 µM, first compound 10 µM): 49.5% | viability, T/C [3]: 77.5% | viability, T/C [4]: 97.5% | viability, T/C (second compound 0.1 µM, first compound 0.316 µM): 77.5% | viability, T/C (second compound 0.1 µM, first compound 1 µM): 53.4% | viability, T/C (second compound 0.1 µM, first compound 3.16 µM): 50% | viability, T/C (second compound 0.1 µM, first compound 10 µM): 36.5% | viability, T/C [5]: 80.1% | viability, T/C [6]: 102% | viability, T/C (second compound 0.316 µM, first compound 0.316 µM): 81.2% | viability, T/C (second compound 0.316 µM, first compound 1 µM): 62.9% | viability, T/C (second compound 0.316 µM, first compound 3.16 µM): 42.8% | viability, T/C (second compound 0.316 µM, first compound 10 µM): 40.4% | viability, T/C [7]: 85.1% | viability, T/C [8]: 104% | viability, T/C (second compound 1 µM, first compound 0.316 µM): 88.5% | viability, T/C (second compound 1 µM, first compound 1 µM): 59.8% | viability, T/C (second compound 1 µM, first compound 3.16 µM): 46.8% | viability, T/C (second compound 1 µM, first compound 10 µM): 44.1% | viability, T/C [9]: 74% | viability, T/C [10]: 94.2% | viability, T/C (second compound 3.16 µM, first compound 0.316 µM): 76.9% | viability, T/C (second compound 3.16 µM, first compound 1 µM): 61.8% | viability, T/C (second compound 3.16 µM, first compound 3.16 µM): 52.9% | viability, T/C (second compound 3.16 µM, first compound 10 µM): 36.3% | viability, T/C [11]: 58% | viability, T/C [12]: 71.1% | viability, T/C (second compound 10 µM, first compound 0.316 µM): 75.8% | viability, T/C (second compound 10 µM, first compound 1 µM): 49.9% | viability, T/C (second compound 10 µM, first compound 3.16 µM): 42.5% | viability, T/C (second compound 10 µM, first compound 10 µM): 33.4%

CC(C)n1nc(-c2ccc3oc(N)nc3c2)c2c(N)ncnc21 + COc1cc2nc(C)nc(NC(C)c3cc(N)cc(C(F)(F)F)c3)c2cc1OC1CCOC1
pIC50 (second compound 0.0316 µM): 8.52 | pIC50 (second compound 0.1 µM): 8.17 | pIC50 (second compound 0.316 µM): 8.53 | pIC50 (second compound 1 µM): 8.55 | pIC50 (second compound 3.16 µM): 8.60 | pIC50 (second compound 10 µM): 8.29 | viability, T/C (second compound 0.0316 µM, first compound 0.000316 µM): 78.9% | viability, T/C (second compound 0.0316 µM, first compound 0.001 µM): 80.2% | viability, T/C (second compound 0.0316 µM, first compound 0.00316 µM): 48.5% | viability, T/C (second compound 0.0316 µM, first compound 0.01 µM): 53% | viability, T/C [1]: 49.2% | viability, T/C [2]: 44% | viability, T/C (second compound 0.1 µM, first compound 0.000316 µM): 82.9% | viability, T/C (second compound 0.1 µM, first compound 0.001 µM): 61.5% | viability, T/C (second compound 0.1 µM, first compound 0.00316 µM): 55.5% | viability, T/C (second compound 0.1 µM, first compound 0.01 µM): 46.5% | viability, T/C [3]: 50.5% | viability, T/C [4]: 39.6% | viability, T/C (second compound 0.316 µM, first compound 0.000316 µM): 79.8% | viability, T/C (second compound 0.316 µM, first compound 0.001 µM): 76.2% | viability, T/C (second compound 0.316 µM, first compound 0.00316 µM): 48.2% | viability, T/C (second compound 0.316 µM, first compound 0.01 µM): 41.1% | viability, T/C [5]: 46.1% | viability, T/C [6]: 39% | viability, T/C (second compound 1 µM, first compound 0.000316 µM): 76% | viability, T/C (second compound 1 µM, first compound 0.001 µM): 67.2% | viability, T/C (second compound 1 µM, first compound 0.00316 µM): 49.3% | viability, T/C (second compound 1 µM, first compound 0.01 µM): 34.5% | viability, T/C [7]: 51% | viability, T/C [8]: 37.7% | viability, T/C (second compound 3.16 µM, first compound 0.000316 µM): 77% | viability, T/C (second compound 3.16 µM, first compound 0.001 µM): 71.8% | viability, T/C (second compound 3.16 µM, first compound 0.00316 µM): 44.2% | viability, T/C (second compound 3.16 µM, first compound 0.01 µM): 41.7% | viability, T/C [9]: 41.8% | viability, T/C [10]: 43.1% | viability, T/C (second compound 10 µM, first compound 0.000316 µM): 62.7% | viability, T/C (second compound 10 µM, first compound 0.001 µM): 61% | viability, T/C (second compound 10 µM, first compound 0.00316 µM): 59.3% | viability, T/C (second compound 10 µM, first compound 0.01 µM): 33.7% | viability, T/C [11]: 41.2% | viability, T/C [12]: 37.4%
